In patent US6673938B1, “Substituted pyridine herbicides” (Syngenta Participations AG, priority 1998, dated 2004):

Tested on: Monocotyledonous and dicotyledonous test plants
Test: Post-emergence herbicidal action
Type: in vivo
Conditions: evaluated after approximately 18 days; for Post-emergence action, Ipomoea / Post-emergence action, Lolium / Post-emergence action, Setaria / Post-emergence action, Sinapis / Post-emergence action, Solanum / Post-emergence action, Stellaria: 2000 g/ha, sprayed in 4- to 6-leaf stage, nine-step scale; for Post-emergence action: Abutilon (score, nine-step scale) / Post-emergence action: Chenop. (score, nine-step scale) / Post-emergence action: Digitaria (score, nine-step scale) / Post-emergence action: Echino. (score, nine-step scale) / Post-emergence action: Ipopur. (score, nine-step scale) / Post-emergence action: Panicum (score, nine-step scale) / Post-emergence action: Xanth. (score, nine-step scale): 250 g/ha, sprayed at 4- to 6-leaf stage
Method: Monocotyledonous and dicotyledonous test plants are grown in the greenhouse in plastic pots containing standard soil, and, in the 4- to 6-leaf stage, sprayed with an aqueous suspension of the test substances of the formula I prepared with a 25% wettable powder (Example F3, b) in accordance with WO 97/34485) or with an emulsion of the test substances of the formula I prepared with a 25% emulsion concentrate (Example F1, c) in accordance with WO 97/34485), corresponding to a rate of 2 kg of a.i./ha or 250 g of a.i./ha (500 l of water/ha). The test plants are subsequently grown on in the greenhouse under optimal conditions. After a test period of approximately 18 days, the test is evaluated with reference to a nine-step scale (1=complete damage, 9=no effect). Score figures of 1 to 4 (in particular 1 to 3) mean a good to very good herbicidal action. In this test, the compounds of the formula I show a potent herbicidal action.

Structure (SMILES)	Post-emergence action, Ipomoea	Post-emergence action, Lolium	Post-emergence action, Setaria	Post-emergence action, Sinapis	Post-emergence action, Solanum	Post-emergence action, Stellaria	Post-emergence action: Abutilon (score, nine-step scale)	Post-emergence action: Chenop. (score, nine-step scale)	Post-emergence action: Digitaria (score, nine-step scale)	Post-emergence action: Echino. (score, nine-step scale)	Post-emergence action: Ipopur. (score, nine-step scale)	Post-emergence action: Panicum (score, nine-step scale)	Post-emergence action: Xanth. (score, nine-step scale)
Cc1nc(C(F)(F)F)ccc1C(=O)C1=C(O)C2CC2C(C)([S+](C)[O-])C1=O (stereo not drawn) [Compound A2-D114, 5-Hydroxy-2-methanesulfinyl-2-methyl-4-(2-methyl-6-trifluoromethylpyridine-3-carbonyl)bicyclo[4.1.0]hept-4-en-3-one]	2	1	1	1	1	1	–	–	–	–	–	–	–
Cc1cc(C(F)(F)F)ncc1C(=O)C1=C(O)C(C)(C)CCC1=O [Compound A531-B24]	2	2	2	1	2	2	–	–	–	–	–	–	–
COC(=O)C1(C)C(O)=C(C(=O)c2ccc(C(F)(F)F)nc2C)C(=O)CC1(C)C (stereo not drawn) [Compound A2-B1087]	1	4	3	1	2	2	–	–	–	–	–	–	–
Cc1nc(C(F)(F)C(F)(F)C(F)(F)F)ccc1C(=O)C1=C(O)CCCC1=O [Compound A64-B1]	2	3	4	1	1	2	–	–	–	–	–	–	–
CCSC1(CC)CC(C)C(=O)C(C(=O)c2ccc(C(F)(F)F)nc2C)=C1O (stereo not drawn) [Compound A2-B1091]	–	–	–	–	–	–	3	3	4	2	3	4	4
Cc1nc(C(F)(F)C(F)(F)F)ccc1C(=O)C1=C(O)C(C)(C)CCC1=O [Compound A34-B24]	1	2	2	1	2	2	–	–	–	–	–	–	–
COCc1nc(C(F)(F)F)ccc1C(=O)C1=C(O)CC2CCCC2C1=O (stereo not drawn) [Compound A8-D36]	–	–	–	–	–	–	2	2	3	2	3	3	3
CCOC(=O)C1(C)C(O)=C(C(=O)c2ccc(C(F)(F)F)nc2COC)C(=O)C2CC21 (stereo not drawn) [Compound A8-D111]	–	–	–	–	–	–	3	3	3	3	2	3	1
CCCc1nc(C(F)(F)F)ccc1C(=O)C1=C(O)C(C)(C)CCC1=O [Compound A7-B24]	1	2	2	1	2	2	–	–	–	–	–	–	–
CC1=CCCC(O)=C(C(=O)c2ccc(C(F)(F)F)nc2C)C1=O [Compound A2-F5, 3-Hydroxy-7-methyl-2-(2-methyl-6-trifluoromethyloyridine-3-carbonyl)cyclohepta-2,6-dienone]	–	–	–	–	–	–	3	3	3	3	4	3	3
Cc1nc(C(F)(F)F)ccc1C(=O)C1=C(O)CCC2(CCOC2=O)C1=O (stereo not drawn) [Compound A2-E16]	2	3	2	2	2	2	–	–	–	–	–	–	–
CCCC1(C)CC(C)C(=O)C(C(=O)c2ccc(C(F)(F)F)nc2C)=C1O (stereo not drawn) [Compound A2-B70]	3	4	3	1	2	2	–	–	–	–	–	–	–
Cc1c(C(=O)C2=C(O)CCCC2=O)ccc(C(F)(F)F)[n+]1[O-] [Compound A1210-B1, 3-Hydroxy-2-(2-methyl-1-oxy-6-trifluoromethylpyridine-3-carbonyl)cyclohex-2-enone]	–	–	–	–	–	–	2	1	2	2	2	2	2
CCC1(CC)CC(C)C(=O)C(C(=O)c2ccc(C(F)(F)F)nc2C)=C1O (stereo not drawn) [Compound A2-B1093]	2	2	2	1	2	2	–	–	–	–	–	–	–
Cc1nc(C(F)(F)F)ccc1C(=O)C1=C(O)CC(C)(C(F)(F)F)CC1=O (stereo not drawn) [Compound A2-B1066]	1	3	2	1	2	2	–	–	–	–	–	–	–
COCc1nc(C(F)(F)F)ccc1C(=O)C1=C(O)C(C)C(C)CC1=O (stereo not drawn) [Compound A8-B134]	–	–	–	–	–	–	2	2	3	3	3	3	3
COCc1nc(C(F)(F)F)ccc1C(=O)C1=C(O)CC(C)CC1=O (stereo not drawn) [Compound A8-B133]	2	4	2	1	2	2	–	–	–	–	–	–	–
CC1(C)CCC(=O)C(C(=O)c2ccc(C(F)(F)F)nc2C2CC2)=C1O [Compound A6-B24]	1	3	2	1	1	2	–	–	–	–	–	–	–
CCC1(CC)CCC(=O)C(C(=O)c2ccc(C(F)(F)F)nc2C)=C1O [Compound A2-B112]	2	3	2	1	2	2	–	–	–	–	–	–	–
